Laboratory results: patent publication US11229662B2, “Compositions and methods for the treatment of aberrant angiogenesis” (The Schepens Eye Research Institute, Inc., priority 2016, dated 2022)
Entries after “also recorded” stand apart in the source; their conditions may differ.

Assays:
HRMEC [1] = test: Ki67 proliferation assay; type: cell-based, human
Protocol: FVMs and cells were incubated with mouse anti-RUNX1 (Santa Cruz) followed by biotinylated secondary antibody (Vector Laboratories), horseradish peroxidase (HRP)-labeled avidin (PerkinElmer), tyramide signal amplification (TSA, PerkinElmer), Vector Red chromogenic substrate (Vector Laboratories) and Gill no. 3 hematoxylin counterstain (Sigma-Aldrich). Immunofluorescent staining for CD31 (mouse anti-CD31; Dako) and Ki67 (rabbit anti-Ki67; Novus Biologicals) was performed as previously described (Kim L A, et al. (2015) Mol Vis 21:673-687). The number of Ki67 positive nuclei was averaged for three fields of view per sample at 20× magnification.
HRMEC were probed for proliferation with the Ki67 marker as follows: cells were permeabilized with 0.5% Triton X-100 in PBS for 5 min, blocked with 5% goat serum in PBS for 2 h at room temperature, incubated with primary antibody overnight at 4° C. (rabbit anti-Ki67 1:50; Novus Biologicals), and incubated with secondary for 2 h at room temperature (goat anti-rabbit Alexa Fluor 594 1:250; Life Technologies Corp.). Samples were imaged using an EVOS® imaging system. The number of Ki67 positive nuclei was averaged for three fields of view per sample at 20× magnification.

RUNX1 protein = test: Western blot of RUNX1 protein; type: cell-based, human; details: 72 hours
Protocol: FIG. 13 is an image showing that a commercially available small molecule PIM3 inhibitor (PIM3 kinase inhibitor VII from EMD Millipore) reduced total RUNX1 protein levels in primary culture retinal endothelial cells in normal and high glucose conditions. Human microvascular retinal endothelial cells were cultured in EGM-2 supplemented with different concentrations of D-glucose for 72 hours in the presence of PIM3 inhibitor (PIM3 kinase inhibitor VII from EMD Millipore, Cat No. 526526, 0.05 μM) or vehicle (DMSO). After harvest, proteins were extracted using RIPA buffer and analyzed by western blot. RUNX1 was detected using antibodies from Santacruz (sc-365644). β-actin was used as a loading control.
FIG. 19 is set of images showing that gamma-secretase inhibition using Compound E small molecule (100 nM) reduces the expression of RUNX1 in primary culture human microvascular endothelial cells. […]
Western Blot Analysis: Cells were lysed using RIPA buffer (Cell Signaling Technology (CST)). […] Immunoreactive bands were visualized using the Odyssey Infrared Imaging System and band intensities normalized to β-actin were quantified using Image Studio version 2.1 (LI-COR).

RUNX1 = test: qRT-PCR of RUNX1 expression; type: cell-based, human
Protocol: (§1) FVMs were collected and CD31+ cells were isolated as previously described [Kim L A, et al. (2015) Mol Vis 21:673-687]. RNA-sequencing was performed using an Illumina HiSeq 2000 (Illumina Inc.), aligned with TopHat (Trapnell et al. (2009) Bioinformatics 25(9):1105-1111], and analyzed using Partek Flow, CuffLinks, EdgeR, and DESeq2. A mixed model ANOVA was used with a threshold false discovery rate (FDR) of <0.05 and fold change >±2 for significance. Gene Ontology was determined using the Database for Annotation, Visualization, and Integrated Discovery (DAVID). […] FVMs and cells were immunostained with standard protocols for paraffin embedded samples.
(§2) siRNA ([…]) (Integrated DNA Technologies; sequences in Table 4) was transfected for 6-8 h using DharmaFECT 1 (GE Life Sciences—Dharmacon) in Opti-MEM (Life Technologies).
(§3) RNA was extracted using RNeasy Mini Kits (Qiagen). Primers were purchased from Integrated DNA Technologies for 200 candidate genes (Table 4). Genes were excluded from further analysis if there was no amplification or amplification was outside the linear range. […] Fluorescent intensities were normalized to spike-in controls (ERCC RNA Spike-In Mix; Life Technologies), HPRT1, and B2M.

HES1 = test: qRT-PCR of HES1 expression; type: cell-based, human; details: 100 nM; 72 hours; 5 mM and 30 mM D-glucose; vs DMSO
Protocol: FIG. 18 is a graph showing that gamma-secretase inhibition using Compound E small molecule (100 nM) reduced the expression of HES1, a canonical downstream target for Notch activity and RUNX1 in primary culture human microvascular endothelial cells. Reduction of HES1 and RUNX1 expression was effective under normal glucose (5 mM D-glucose and high glucose 30 mM D-glucose). Cells were incubated with Compound E or DMSO vehicle control in different glucose concentrations for 72 hours before harvest followed by qRT-PCR for each gene. HPRT1 expression was used as control.
as §3

C57BL/6J mice with OIR = test: Oxygen-induced retinopathy (OIR) mouse model, retinal flat mounts; type: in vivo; details: P17
Protocol: OIR was induced in wild-type C57BL/6J mice as previously described (Smith L E et al., (1994) Invest Ophthalmol Vis Sci 35(1):101-111). Intravitreal injections with 1 μL of 75 μM Ro5-3335 RUNX1 inhibitor or DMSO were performed on left eyes only at P13 and P15 under ketamine/xylazine anesthesia. Pups were euthanized at P17 and eyes were collected, fixed in 4% paraformaldehyde, and used for retinal flat mounts (nvehicle=7; nRo5-3335=9). Avascular and neovascular areas were quantified using Photoshop as previously described (Connor H M et al., (2009) Nature Protocols 4(11):1565-1573).

HRMEC [2] = test: Tube forming assay; type: cell-based, human
Protocol: HRMEC were treated overnight with 75 μM Ro5-3335 or DMSO before plating 20000 cells onto wells pre-coated with basement membrane extract (Trevigen). Cells were imaged six h after plating and tube formation was quantified using the Angiogenesis Analyzer plugin for ImageJ.

[3] = HIV treatment trial, Haubrich et al. (1995); cited from earlier work
RUNX3 = test: qRT-PCR of RUNX3 expression; type: cell-based, human; details: RUNX1 siRNA; 48 hours post-transfection
Protocol: as §2, §3

IGFBP3 = test: qRT-PCR of IGFBP3 expression; type: cell-based, human; details: RUNX1 siRNA knockdown
Protocol: as §2, §3
HRMEC were transfected with pCMV5-AML1c (Addgene Plasmid #12426) (the plasmid contains the sequence of RUNX1 encoding 480 amino acids; in the sequences listed herein this corresponds to RUNX1g) or pCMV5 empty vector using the HCAEC Nucleofector kit (VPB-1001; Program S-005) following manufacturer's optimized protocol.

HRMEC [4] = test: Scratch-wound migration assay; type: cell-based, human; details: for wound closure (scratch assay): siRNA knockdown of RUNX1, 0-12 h
Protocol: as §1
Migration was assessed with the scratch-wound assay (Liang C C et al. (2007) Nature Protocols 2(2):329-333). One scratch was generated per well and imaged on an EVOS® imaging system every three hours for 12 h. Images were analyzed with the TScratch Matlab module (Geback et al. (2009) Biotechniques 46(4):265-274).

RUNX2 = test: qRT-PCR of RUNX2 expression; type: cell-based, human; details: RUNX1 siRNA; 48 hours post-transfection
Protocol: as §2, §3

[5] = intravitreal 75 μM at P13 and P15, vs vehicle
[6] = HRMEC treated overnight with 75 μM Ro5-3335, imaged 6 h after plating, vs DMSO

N[C@@H]1CCCN(c2c(/C=C3\SC(=O)NC3=O)cccc2-c2ccccc2)C1 [AZD1208]
reduction in cell migration (HRMEC [1]; treated 48 hours before proliferation assay, Ki67 marker, vs DMSO control): 43%

C[C@H](NC(=O)Cc1cc(F)cc(F)c1)C(=O)N[C@H]1N=C(c2ccccc2)c2ccccc2N(C)C1=O [Compound E]
RUNX1 expression (western blot) (RUNX1 protein; 100 nM, 5 mM and 30 mM D-glucose): reduces | RUNX1 expression (qRT-PCR) (RUNX1; 100 nM, 72 hours, 5 mM and 30 mM D-glucose, vs DMSO): reduced | HES1 expression (HES1): reduced

CC/C(=N\NC(=O)c1ccnc(NCCCN2CCOCC2)c1)c1ccc(Cl)cc1O [PIM3 kinase inhibitor VII, N′-(1-(4-Chloro-2-hydroxyphenyl)propylidene)-2-((3-morpholinopropyl)amino)isonicotinohydrazide]
total RUNX1 protein levels (RUNX1 protein; 0.05 μM, normal and high glucose, vs DMSO): reduced

O=C1CN=C(c2ccc[nH]2)c2cc(Cl)ccc2N1 [Ro5-3335]
avascular area (extent of vaso-obliteration) (C57BL/6J mice with OIR; [5]): no significant change; also recorded: non-significant downward trend | neovascularization / neovascular tufts (C57BL/6J mice with OIR; [5]): significant reduction | reduction in neovascularization (C57BL/6J mice with OIR; intravitreal 1 μL of 75 μM at P13 and P15, vs vehicle treated eyes): 50% | meshes reduction (HRMEC [2]; [6]): 46% | nodes reduction (HRMEC [2]; [6]): 35% | total tube length reduction (HRMEC [2]; [6]): 18% | tube forming capacity (HRMEC [2]; overnight treatment, 6 h after plating, vs vehicle treated cells): reduced tube forming capacity

CNC1=Nc2ccc(Cl)cc2C(c2ccc[nH]2)=NC1 [Ro24-7429]
safety in clinical trial [3]: safe

RUNX1 siRNA: siRNA against human RUNX1, Integrated DNA Technologies; duplex hs.Ri.RUNX1.13.3 (SEQ ID NO: 247/248) (chain 1 CCUUUCAUGUUAAUCAAACAAGUGA; chain 2 UCACUUGUUUGAUUAACAUGAAAGGGA; listed as RNA, chemistry not fully specified)
RUNX3 RNA expression (RUNX3): did not significantly affect; also recorded: no significant changes | increase in IGFBP3 mRNA expression (IGFBP3): 330% | decrease in wound closure rate (HRMEC [4]; RUNX1 siRNA knockdown, monitored 12 h, vs controls): 60% | wound closure (scratch assay) (HRMEC [4]): effectively inhibits wound closure | RUNX2 RNA expression (RUNX2): did not significantly affect; also recorded: no significant changes | reduction of RUNX1 RNA expression (RUNX1; RUNX1 siRNA, 48 hours post-transfection): 60% | cell number and proliferative capacity (Ki67 staining) (HRMEC [1]; 48 h post transfection, vs transfection reagent alone or scramble siRNA): significant reduction | fewer Ki67 positive cells (HRMEC [1]; RUNX1 siRNA transfected EC vs controls): 60%

siRNA-2: second RUNX1 siRNA; probably duplex HSC.RNAI.N001001890.12.1 (SEQ ID NO: 249/250) (chain 1 ACUAGAUGAUCAGACCAAGCCCGGG; chain 2 CCCGGGCUUGGUCUGAUCAUCUAGUUU; listed as RNA, chemistry not fully specified)
wound closure (scratch assay) (HRMEC [4]): functional inhibition
